Measurements taken from patent publication US10914725B2, “Culture medium additive, culture medium composition, and method for culturing cells or tissue using same” (NISSAN CHEMICAL INDUSTRIES, LTD., priority 2015, dated 2021).

Columns and labels:
[1] = system: adenocarcinomic human alveolar basal epithelial cell line A549; test: CellTiter-Glo cell survival assay of anticancer agents (Experimental Example 8); type: cell-based; settings: for IC50: Homo sapiens, A549, cell survival assay by luminescence, read-out: 50% inhibitory concentration
Description: Adenocarcinomic human alveolar basal epithelial cell line A549 (manufactured by DS PHARMA BIOMEDICAL CO., LTD.) was suspended in the above-mentioned medium composition containing low-molecular agar at 11,000 cells/mL. The above-mentioned cell suspension was dispensed to the wells of a 96 well flat bottom ultra-low attachment surface microplate (manufactured by Corning Incorporated, #3474) at 90 μL per 1 well. The plate was stood in a CO2 incubator (37° C., 5% CO2) overnight. […] Successively, the plate was further cultured in a standing state in a CO2 incubator (37° C., 5% CO2) for 7 days. As a negative control, a medium composition containing 10 (v/v) % FBS alone in DMEM (manufactured by Wako Pure Chemical Industries, Ltd.) was prepared. […] A549 cells were also suspended in each of the negative control and comparison control medium compositions, the negative control was dispensed to a 96 well flat bottom attachment surface microplate (manufactured by Corning Incorporated, #3585) and the comparison control was dispensed to a 96 well flat bottom ultra-low attachment surface microplate (manufactured by Corning Incorporated, #3474). […] CellTiter-Glo Luminescent Cell Viability Assay (manufactured by Promega) (100 μL) was added to the low-molecular agar-containing culture medium and each cell culture medium of the negative control and comparison control, the mixture was stood for 10 min at room temperature, and the amount of luminescence was measured by a microplate reader (“FlexStation 3”, manufactured by Molecular Devices) and according to the protocol recommended by Promega. The amount of luminescence of the medium alone was subtracted, whereby the number of viable cells was measured.

[2] = system: adenocarcinomic human alveolar basal epithelial cell line A549; test: High content analysis of anticancer agents by cell image analysis (Experimental Example 8); type: cell-based; settings: for IC50: Homo sapiens; for average cell number per sphere / average dead cell number in sphere / average sphere number per 20 mm^2 / projected area: 0.03 (w/v)% low-molecular agar medium, 7 days with agent;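 on projected area: Projected area in square micrometres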
Description: Adenocarcinomic human alveolar basal epithelial cell line A549 (manufactured by DS PHARMA BIOMEDICAL CO., LTD.) was suspended in the above-mentioned medium composition containing low-molecular agar at 11,000 cells/mL. […] The plate was stood in a CO2 incubator (37° C., 5% CO2) overnight. The next day, paclitaxel (manufactured by Wako Pure Chemical Industries, Ltd.) and trametinib (manufactured by SANTA CRUZ) were further added by 10 μl per 1 well at a final concentration of 0.001 μM, 0.01 μM and 0.1 μM, respectively, mitomycin C (manufactured by Wako Pure Chemical Industries, Ltd.) at a final concentration of 0.005 μM, 0.05 μM and 0.5 μM, and MK2206 (manufactured by SANTA CRUZ) at a final concentration of 0.001 μM, 0.01 μM, 0.1 μM and 1 μM. Successively, the plate was further cultured in a standing state in a CO2 incubator (37° C., 5% CO2) for 7 days.
Successively, a solution of 20 μg/mL Propidium Iodide (manufactured by BIOMOL) in DMEM (phenol red, L-glutamine free) (manufactured by Wako Pure Chemical Industries, Ltd.) was prepared and added at 10 μL per 1 well, and the culture medium was suspended. The plate was centrifuged at 1,500 rpm for 1 min, and high content analysis was performed by cell image analysis using a cell imaging apparatus (“ArrayScan VTI HCS Reader”, manufactured by Thermo Fisher Scientific). At that time, observation was performed with 20 fields of view per well using a ×10 objective lens, cell outline and cell nucleus were detected from Hoechst33342 fluorescence image, and dead cells were detected from propidium iodide fluorescence image. In addition, 50% inhibitory concentration (nM) of each anticancer agent by high content analysis was calculated from the number of spheres constituted of not less than 5 cells. In this case, the value without addition of the anticancer agent was taken as 0% sphere formation inhibitory rate.

[3] = comparison control (0.015 (w/v)% deacylated gellan gum medium)
[4] = low-molecular agar-containing medium
[5] = negative control (DMEM, 10% FBS, attachment surface plate)
[6] = agent 0.001 μM, comparison control (0.015 (w/v)% deacylated gellan gum medium)
[7] = agent 0.001 μM, low-molecular agar-containing medium
[8] = agent 0.001 μM, negative control (DMEM, 10% FBS, attachment surface plate)
[9] = agent 0.01 μM, comparison control (0.015 (w/v)% deacylated gellan gum medium)
[10] = agent 0.01 μM, low-molecular agar-containing medium
[11] = agent 0.01 μM, negative control (DMEM, 10% FBS, attachment surface plate)
[12] = agent 0.1 μM, comparison control (0.015 (w/v)% deacylated gellan gum medium)
[13] = agent 0.1 μM, low-molecular agar-containing medium
[14] = agent 0.1 μM, negative control (DMEM, 10% FBS, attachment surface plate)
[15] = A549, high content analysis by cell image analysis, number of spheres of not less than 5 cells, low-molecular agar-containing medium, read-out: 50% inhibitory concentration

## NC1(c2ccc(-c3nc4ccn5c(=O)[nH]nc5c4cc3-c3ccccc3)cc2)CCC1 [MK2206]
[1]; [3]
  IC50: 210 nM
[1]; [4]
  IC50: 250 nM
[1]; [5]
  IC50: ≥ 1000 nM
[1]; [6]
  relative cell number (no anticancer agent = 100): 95.8
[1]; [7]
  relative cell number (no anticancer agent = 100): 100.1
[1]; [8]
  relative cell number (no anticancer agent = 100): 100.2
[1]; [9]
  relative cell number (no anticancer agent = 100): 89.1
[1]; [10]
  relative cell number (no anticancer agent = 100): 93.9
[1]; [11]
  relative cell number (no anticancer agent = 100): 101.3
[1]; [12]
  relative cell number (no anticancer agent = 100): 61.8
[1]; [13]
  relative cell number (no anticancer agent = 100): 66.5
[1]; [14]
  relative cell number (no anticancer agent = 100): 97.6
[1]; agent 1 μM, comparison control (0.015 (w/v)% deacylated gellan gum medium)
  relative cell number (no anticancer agent = 100): 25.2
[1]; agent 1 μM, low-molecular agar-containing medium
  relative cell number (no anticancer agent = 100): 25.7
[1]; agent 1 μM, negative control (DMEM, 10% FBS, attachment surface plate)
  relative cell number (no anticancer agent = 100): 95.7
[2]; [15]
  IC50: 210 nM
[2]; agent 0.001 μM
  average cell number per sphere: 5.044
  average dead cell number in sphere: 0.104
  average sphere number per 20 mm^2: 230.6
  projected area: 1361 μm^2
[2]; agent 0.01 μM
  average cell number per sphere: 4.774
  average dead cell number in sphere: 0.074
  average sphere number per 20 mm^2: 213.7
  projected area: 1343 μm^2
[2]; agent 0.1 μM
  average cell number per sphere: 4.323
  average dead cell number in sphere: 0.076
  average sphere number per 20 mm^2: 206.1
  projected area: 1199 μm^2
[2]; agent 1 μM
  average cell number per sphere: 3.423
  average dead cell number in sphere: 0.332
  average sphere number per 20 mm^2: 142.3
  projected area: 931.2 μm^2

## CO[C@@]12[C@H](COC(N)=O)C3=C(C(=O)C(C)=C(N)C3=O)N1C[C@@H]1N[C@@H]12 [mitomycin C]
[1]; [3]
  IC50: 12.1 nM
[1]; [4]
  IC50: 10 nM
[1]; [5]
  IC50: 71.4 nM
[1]; agent 0.005 μM, comparison control (0.015 (w/v)% deacylated gellan gum medium)
  relative cell number (no anticancer agent = 100): 62.8
[1]; agent 0.005 μM, low-molecular agar-containing medium
  relative cell number (no anticancer agent = 100): 59.5
[1]; agent 0.005 μM, negative control (DMEM, 10% FBS, attachment surface plate)
  relative cell number (no anticancer agent = 100): 94
[1]; agent 0.05 μM, comparison control (0.015 (w/v)% deacylated gellan gum medium)
  relative cell number (no anticancer agent = 100): 29.5
[1]; agent 0.05 μM, low-molecular agar-containing medium
  relative cell number (no anticancer agent = 100): 27.8
[1]; agent 0.05 μM, negative control (DMEM, 10% FBS, attachment surface plate)
  relative cell number (no anticancer agent = 100): 55.9
[1]; agent 0.5 μM, comparison control (0.015 (w/v)% deacylated gellan gum medium)
  relative cell number (no anticancer agent = 100): 8.6
[1]; agent 0.5 μM, low-molecular agar-containing medium
  relative cell number (no anticancer agent = 100): 8.1
[1]; agent 0.5 μM, negative control (DMEM, 10% FBS, attachment surface plate)
  relative cell number (no anticancer agent = 100): 12.3
[2]; A549, read-out: 50% inhibitory concentration
  IC50: 6.4 nM
[2]; agent 0.005 μM
  average cell number per sphere: 3.72
  average dead cell number in sphere: 0.151
  average sphere number per 20 mm^2: 265.2
  projected area: 1139 μm^2
[2]; agent 0.05 μM
  average cell number per sphere: 2.187
  average dead cell number in sphere: 0.33
  average sphere number per 20 mm^2: 190.6
  projected area: 810.7 μm^2
[2]; agent 0.5 μM
  average cell number per sphere: 1.447
  average dead cell number in sphere: 0.606
  average sphere number per 20 mm^2: 113.3
  projected area: 460.8 μm^2

## CC(=O)Nc1cccc(-n2c(=O)n(C3CC3)c(=O)c3c(Nc4ccc(I)cc4F)n(C)c(=O)c(C)c32)c1 [trametinib]
[1]; [3]
  IC50: 11.5 nM
[1]; [4]
  IC50: 8.1 nM
[1]; [5]
  IC50: 62.5 nM
[1]; [6]
  relative cell number (no anticancer agent = 100): 93.3
[1]; [7]
  relative cell number (no anticancer agent = 100): 92.2
[1]; [8]
  relative cell number (no anticancer agent = 100): 101.2
[1]; [9]
  relative cell number (no anticancer agent = 100): 52.5
[1]; [10]
  relative cell number (no anticancer agent = 100): 45.8
[1]; [11]
  relative cell number (no anticancer agent = 100): 99
[1]; [12]
  relative cell number (no anticancer agent = 100): 18.1
[1]; [13]
  relative cell number (no anticancer agent = 100): 18.2
[1]; [14]
  relative cell number (no anticancer agent = 100): 37.4
[2]; [15]
  IC50: 5.1 nM
[2]; agent 0.001 μM
  average cell number per sphere: 4.272
  average dead cell number in sphere: 0.073
  average sphere number per 20 mm^2: 218.7
  projected area: 1200 μm^2
[2]; agent 0.01 μM
  average cell number per sphere: 2.906
  average dead cell number in sphere: 0.09
  average sphere number per 20 mm^2: 173.9
  projected area: 976.6 μm^2
[2]; agent 0.1 μM
  average cell number per sphere: 1.867
  average dead cell number in sphere: 0.178
  average sphere number per 20 mm^2: 132.8
  projected area: 618.3 μm^2
